Calls of active or inactive are those of the source.
Key:
[1] = target: Heat shock protein HSP 90-alpha (Homo sapiens, UniProt P07900); format: functional, organism-based
[2] = target: T1, Ubiquitin-conjugating enzyme E2 N (Homo sapiens, UniProt P61088); format: functional
T1 sequence (P61088 whole entry): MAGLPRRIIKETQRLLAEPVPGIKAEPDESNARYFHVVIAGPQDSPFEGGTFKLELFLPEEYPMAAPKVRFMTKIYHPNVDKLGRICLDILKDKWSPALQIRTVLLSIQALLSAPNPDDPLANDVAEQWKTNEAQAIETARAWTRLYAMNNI

Bcl-2-related protein A1 = target: T2, Bcl-2-related protein A1 (Mus musculus, UniProt Q07440); format: functional;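 also: confirmatory dose–response counterscreen on Bfl-1, used to check hits from a UBC13 polyubiquitin inhibitor campaign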
T2 sequence (Q07440 whole entry): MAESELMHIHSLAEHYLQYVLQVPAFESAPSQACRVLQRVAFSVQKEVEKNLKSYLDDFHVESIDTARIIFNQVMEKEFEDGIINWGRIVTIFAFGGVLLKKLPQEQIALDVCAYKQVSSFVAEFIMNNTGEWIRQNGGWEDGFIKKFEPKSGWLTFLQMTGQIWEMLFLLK

[3] = target: T1, Ubiquitin-conjugating enzyme E2 N; format: functional; remark: listed apart in the source
[4] = target: Voltage-gated inwardly rectifying potassium channel KCNH2 (Homo sapiens, UniProt Q12809); conditions: Potency;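 also: confirmatory quantitative high-throughput screen measuring inhibition of hERG channel activity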
Chain of Voltage-gated inwardly rectifying potassium channel KCNH2 (Q12809 whole entry): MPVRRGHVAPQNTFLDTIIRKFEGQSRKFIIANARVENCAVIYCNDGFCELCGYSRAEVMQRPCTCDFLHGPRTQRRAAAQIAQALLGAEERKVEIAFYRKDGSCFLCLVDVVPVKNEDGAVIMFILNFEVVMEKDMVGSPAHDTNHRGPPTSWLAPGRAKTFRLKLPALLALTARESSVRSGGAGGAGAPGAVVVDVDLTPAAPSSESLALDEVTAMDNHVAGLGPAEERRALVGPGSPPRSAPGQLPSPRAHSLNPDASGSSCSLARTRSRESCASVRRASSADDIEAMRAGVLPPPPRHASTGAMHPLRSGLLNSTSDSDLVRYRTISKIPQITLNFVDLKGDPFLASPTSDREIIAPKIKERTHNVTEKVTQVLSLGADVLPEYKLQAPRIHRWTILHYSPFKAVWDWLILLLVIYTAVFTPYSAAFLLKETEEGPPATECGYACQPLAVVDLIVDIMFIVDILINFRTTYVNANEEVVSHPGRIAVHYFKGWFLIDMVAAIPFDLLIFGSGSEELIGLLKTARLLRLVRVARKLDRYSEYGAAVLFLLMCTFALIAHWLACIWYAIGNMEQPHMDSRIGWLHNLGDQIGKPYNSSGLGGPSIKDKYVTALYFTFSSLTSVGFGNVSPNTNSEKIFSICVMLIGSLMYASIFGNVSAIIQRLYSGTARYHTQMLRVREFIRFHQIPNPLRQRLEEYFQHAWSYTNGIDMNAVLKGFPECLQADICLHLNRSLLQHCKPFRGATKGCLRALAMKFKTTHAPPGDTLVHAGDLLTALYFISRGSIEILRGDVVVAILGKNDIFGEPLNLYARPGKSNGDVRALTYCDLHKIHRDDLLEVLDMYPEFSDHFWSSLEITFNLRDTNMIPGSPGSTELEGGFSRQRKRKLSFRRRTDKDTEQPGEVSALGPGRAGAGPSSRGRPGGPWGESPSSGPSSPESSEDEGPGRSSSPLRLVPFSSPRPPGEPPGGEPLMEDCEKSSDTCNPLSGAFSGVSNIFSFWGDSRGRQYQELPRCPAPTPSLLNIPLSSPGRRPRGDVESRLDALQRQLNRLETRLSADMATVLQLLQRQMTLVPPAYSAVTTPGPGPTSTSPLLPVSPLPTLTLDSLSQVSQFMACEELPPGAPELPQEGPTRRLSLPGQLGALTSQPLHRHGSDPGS

[5] = Luminescence Cell-Based Dose Retest to Confirm Inhibitors of Cancer Stem Cells. [Related pubchem assays (depositor defined):AID2717, AID2721]; format: functional; conditions: Homo sapiens
Escherichia coli = assay: microbe, parasite or virus in culture
Melanocortin receptor 4 = Melanocortin receptor 4 (Homo sapiens, UniProt P32245); format: functional, cell-based;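 also: Cell-based assay with luminescence read-out, confirmatory dose-response testing for agonist activity of biased ligands at MC4R; human U2OS cells with tagged receptor and beta-arrestin; potency of agonists that increase receptor coupling to beta-arrestin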
Chain of Melanocortin receptor 4 (P32245 whole entry): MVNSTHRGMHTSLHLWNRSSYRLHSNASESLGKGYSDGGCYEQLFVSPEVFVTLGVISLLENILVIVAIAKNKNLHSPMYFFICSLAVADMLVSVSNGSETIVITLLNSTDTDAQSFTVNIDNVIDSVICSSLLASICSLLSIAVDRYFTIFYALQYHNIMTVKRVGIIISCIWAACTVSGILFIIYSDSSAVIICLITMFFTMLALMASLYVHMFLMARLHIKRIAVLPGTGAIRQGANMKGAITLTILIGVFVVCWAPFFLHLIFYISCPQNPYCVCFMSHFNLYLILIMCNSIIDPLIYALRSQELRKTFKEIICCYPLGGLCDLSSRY

Vero [6] = assay: cells; format: functional, cell-based; conditions: Chlorocebus sabaeus
Vero [7] = assay: cells; format: functional; conditions: Chlorocebus sabaeus
[8] = NIH-3T3 fibroblast cytotoxicity, dose response, cytotoxicity control for antifungal single agent project, cell-based, Alamar Blue, dry powder (AID 602188); format: functional
Phospholipase A2 = Phospholipase A2 (Homo sapiens, UniProt P04054); format: functional;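 also: confirmatory dose-response counterscreen on phospholipase A2, testing hits that came from an ultra-high-throughput screen for ATG4B inhibitors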
Chain of Phospholipase A2 (P04054 whole entry): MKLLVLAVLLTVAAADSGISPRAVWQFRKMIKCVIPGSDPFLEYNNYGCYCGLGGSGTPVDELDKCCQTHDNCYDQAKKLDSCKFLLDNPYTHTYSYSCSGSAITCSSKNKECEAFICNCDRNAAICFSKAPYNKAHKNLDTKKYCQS

Cysteine protease ATG4B = target: T3, Cysteine protease ATG4B (Homo sapiens, UniProt Q9Y4P1); format: functional;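 also: Fluorescence-based dose-response confirmation assay measuring inhibition of ATG4B activity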
T3 sequence (Q9Y4P1 whole entry): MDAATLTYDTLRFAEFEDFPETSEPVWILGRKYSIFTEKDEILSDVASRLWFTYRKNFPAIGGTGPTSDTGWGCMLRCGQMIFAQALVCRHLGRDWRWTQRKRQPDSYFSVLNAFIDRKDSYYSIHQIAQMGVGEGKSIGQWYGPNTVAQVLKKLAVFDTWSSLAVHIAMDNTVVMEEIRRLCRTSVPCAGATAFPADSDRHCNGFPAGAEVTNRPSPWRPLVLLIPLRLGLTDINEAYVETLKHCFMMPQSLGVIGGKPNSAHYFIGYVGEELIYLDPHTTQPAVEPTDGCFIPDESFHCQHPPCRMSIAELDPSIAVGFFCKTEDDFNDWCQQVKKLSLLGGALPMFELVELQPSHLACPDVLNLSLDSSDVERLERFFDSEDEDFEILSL

CCCCCCOC(=O)Sc1nc2ccccc2o1
AC50 [1]: 2.78 µM (active)

O=C1c2cccc3cccc(c23)C(=O)N1CCN1CCN(CC(O)COCc2ccc(Cl)cc2)CC1 (stereo not drawn)
IC50 [2]: 2.89 µM (active)
IC50 (Bcl-2-related protein A1): > 20 µM (inactive)
IC50 [3]: 2.31 µM (active)

C=C(C)C(=O)OCCCCCCCCCC
AC50 [4]: 3.55 µM (inconclusive)

CCN(Cc1ccccc1)S(=O)(=O)c1ccc(C(=O)N(CCCN(C)C)c2nc3cc4c(cc3s2)OCCO4)cc1
IC50 [2]: 2.81 µM (active)
IC50 (Bcl-2-related protein A1): > 20 µM (inactive)
IC50 [3]: 2.93 µM (active)

Cc1nc(NC(=O)c2ccco2)sc1-c1csc(Nc2ccc(Cl)cc2)n1
AC50 [5]: 2.03 µM (active)
AC50 (Escherichia coli): 39.7 µM (active)

Oc1cccc(Cl)c1Cl
AC50 [4]: 5.01 µM (inconclusive)

COc1ccc2sc(-c3ccc(S(C)(=O)=O)cc3)c(C#Cc3cncn3C)c2c1
EC50 (Melanocortin receptor 4): > 89.2 µM (inactive)

CCn1c(=O)c2nc(Cl)[nH]c2n(CC)c1=O
IC50 (Vero [6]): 17 µM (active)
CC50 (Vero [7]): > 25 µM (active)

Cc1ccc(C(=O)Nc2nnc(-c3ccccc3)o2)cc1C
AC50 [8]: 14.2 µM (active)

Oc1c(Br)cc(Br)cc1/C=N/c1ccc2c(c1)OCO2
IC50 (Phospholipase A2): 7.68 µM (active)
IC50 (Cysteine protease ATG4B): 4.43 µM (active)

Oc1cc2c(cc1O)CN(C(=S)NCCc1ccc(Cl)cc1)CCC2 [CAPSAZEPINE]
AC50 [4]: 11.2 µM (inconclusive)

— ChEMBL document CHEMBL1201862, “PubChem BioAssay data set” (2004)
